These results are taken from patent US20210188843A1, “QUINOLINE COMPOUNDS AND THEIR PREPARATION AND USE AS ANTIMALARIAL AGENTS” (The United States of America,as represented by the …, priority 2018, published 2021).

Molecules are shown by their SMILES. pEC50: −log10 of the molar value. Values after ≈ are worked out from the molar mass of the structure shown. Like-named read-outs stand apart in the source and are kept apart here. Some results are limits rather than exact numbers.

One data set in a line: PAMPA permeability. The format is in vitro ADME.
A short description of the next data set: Solubility pH 7.4. The format is physicochemical. To be noted: aqueous buffer.
In data set [1] the test system is Asexual parasites of P. falciparum strain 3D7. In words: In vitro drug activity on asexual parasites (SYBR Green assay). The class given is cell-based. To be noted: Plasmodium falciparum, P. falciparum 3D7 asexual stage, 72 h, read-out: Asexual EC50. The method, boiled down: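 3D7 asexual cultures at 0.5% parasitemia and 2% hematocrit were exposed to drug (DMSO <0.5%) for 72 h under standard culture conditions, in duplicate with no-drug and RBC-only controls. After freeze-thaw lysis, SYBR Green I lysis buffer was added for 30 min at room temperature; fluorescence was read at 490 nm excitation/520 nm emission.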

A short description of data set [2]: Microsomal stability (rat). The format is in vitro ADME. The note with it: rat microsomes.
Where [3] appears, read: Table 1, read-out: Microsomal Stability (rat) T1/2.
The mark [4] stands for this setting: Table 3, read-out: Microsomal Stability (rat) T1/2.

`Cc1ccc(C#N)cc1-n1c(=N)n(C)c2cnc3ccc(-c4ccccn4)cc3c21` [Compound 91, 3-(2-imino-3-methyl-8-(pyridin-2-yl)-2,3-dihydro-1H-imidazo[4,5-c]quinolin-1-yl)-4-methylbenzonitrile]: the apparent permeability (Papp) in the data set “PAMPA permeability” (Table 1) came out at 1370 ×10⁻⁶ cm/s. In “Solubility pH 7.4” (Table 1), this compound gave a solubility above 39 µg/mL. In addition, the negative logarithm of the EC50 (pEC50) in data set [1] (Table 1) is 6.37. Also, in data set [2] (setting [3]), the half-life was above 30 min.
Turning to `Cc1ccc(C#N)cc1-n1c(=N)n(C)c2cnc3ccc(-c4ncc(Cl)cn4)cc3c21` [Compound 52, 3-(8-(5-chloropyrimidin-2-yl)-2-imino-3-methyl-2,3-dihydro-1H-imidazo[4,5-c]quinolin-1-yl)-4-methylbenzonitrile], the Papp in “PAMPA permeability” (Table 1) was 1430 ×10⁻⁶ cm/s. This compound registered a solubility in the data set “Solubility pH 7.4” (Table 1) above 42 µg/mL. In addition, the pEC50 in data set [1] (Table 1) was 6.35. Also, the half-life in data set [2] (setting [3]) was above 30 min.
Taken in the same sequence, the figures for `Cc1ccc(C#N)cc1-n1c(=N)n(C)c2cnc3ccc(-c4ccc(Cl)c(Cl)c4)cc3c21` [Compound 42, 3-(8-(3,4-dichlorophenyl)-2-imino-3-methyl-2,3-dihydro-1H-imidazo[4,5-c]quinolin-1-yl)-4-methylbenzonitrile] were 1650 ×10⁻⁶ cm/s, below 1 µg/mL, 6.24 and above 30 min.
For `Cn1c(=N)n(-c2cccc(C(F)(F)F)c2)c2c3cc(-c4ccc(Cl)cc4)ccc3ncc21` [Compound 26, 8-(4-chlorophenyl)-3-methyl-1-(3-(trifluoromethyl)phenyl)-1,3-dihydro-2H-imidazo[4,5-c]quinolin-2-imine] the same measures were 1670 ×10⁻⁶ cm/s, below 1 µg/mL, 6.28 and above 30 min.
As to `Cc1ccc(-c2ccc3ncc4c(c3c2)n(-c2cncnc2C)c(=N)n4C)cc1`, the apparent permeability (Papp) in the data set “PAMPA permeability” (Table 3) was 1240 ×10⁻⁶ cm/s. In addition, the solubility in the data set “Solubility pH 7.4” (Table 3) is above 38 µg/mL. The negative-log EC50 (pEC50) in data set [1] (Table 3) was 5.94. Also, the half-life in data set [2] (setting [4]) is above 30 min.
In the data set “PAMPA permeability” (Table 1), `CC(=O)NC1CCN(c2cc(C)c(-n3c(=N)n(C)c4cnc5ccc(-c6ccc(Cl)cc6)cc5c43)cc2C#N)CC1` [Compound 132, N-(1-(4-(8-(4-chlorophenyl)-2-imino-3-methyl-2,3-dihydro-1H-imidazo[4,5-c]quinolin-1-yl)-2-cyano-5-methylphenyl)piperidin-4-yl)acetamide] came in with a Papp of 7 ×10⁻⁶ cm/s. In the data set “Solubility pH 7.4” (Table 1), this compound yielded a solubility of 4.6 µg/mL (≈ 8.15 µM). For the same compound, the negative logarithm of the EC50 (pEC50) in data set [1] (Table 1) was 7.26. Also, the half-life in data set [2] (setting [3]) is above 30 min.
In the case of `Cn1c(=N)n(-c2cccc(F)c2)c2c3cc(-c4ccc(Cl)cc4)ccc3ncc21` [Compound 78, 8-(4-chlorophenyl)-1-(3-fluorophenyl)-3-methyl-1,3-dihydro-2H-imidazo[4,5-c]quinolin-2-imine], the Papp in the data set “PAMPA permeability” (Table 1) came to 629 ×10⁻⁶ cm/s. Also, the solubility in the data set “Solubility pH 7.4” (Table 1) is below 1 µg/mL. Moreover, the negative logarithm of the EC50 (pEC50) in data set [1] (Table 1) was 6.51. The half-life in data set [2] (setting [3]) was above 30 min.
The compound `Cc1ccc(C#N)cc1-n1c(=N)n(C)c2cnc3ccc(-c4cccc(C#N)c4)cc3c21` [Compound 25, 3-(8-(3-cyanophenyl)-2-imino-3-methyl-2,3-dihydro-1H-imidazo[4,5-c]quinolin-1-yl)-4-methylbenzonitrile] returned an apparent permeability (Papp) in the data set “PAMPA permeability” (Table 1) of 1430 ×10⁻⁶ cm/s. The compound also came in with a solubility in “Solubility pH 7.4” (Table 1) above 41 µg/mL. In addition, in data set [1] (Table 1), the negative logarithm of the EC50 (pEC50) was 6.93. In data set [2] (setting [3]), the half-life was above 30 min.
In “PAMPA permeability” (Table 1), `COC(=O)/N=c1\n(C)c2cnc3ccc(-c4ccc(C)cc4)cc3c2n1-c1cc(C#N)c(N2CCN(C)CC2)cc1C` [Compound 147, Methyl (E)-(1-(5-cyano-2-methyl-4-(4-methylpiperazin-1-yl)phenyl)-3-methyl-8-(p-tolyl)-1,3-dihydro-2H-imidazo[4,5-c]quinolin-2-ylidene)carbamate] showed an apparent permeability coefficient (Papp) of 656 ×10⁻⁶ cm/s. This compound displayed a solubility in “Solubility pH 7.4” (Table 1) of 4.3 µg/mL (≈ 7.68 µM). In data set [1] (Table 1), the pEC50 was 7.55. Also, in data set [2] (setting [3]), the half-life stood at 24.4 min.
For `Cc1ccc(C#N)cc1-n1c(=N)n(C)c2cnc3ccc(C4=CCN(C)C4)cc3c21` [Compound 60, 3-(2-imino-3-methyl-8-(1-methyl-2,5-dihydro-1H-pyrrol-3-yl)-2,3-dihydro-1H-imidazo[4,5-c]quinolin-1-yl)-4-methylbenzonitrile] the same measures were 2 ×10⁻⁶ cm/s, above 39 µg/mL, 6.32 and above 30 min.
In “PAMPA permeability” (Table 1), `COC(=O)/N=c1\n(C)c2cnc3ccc(-c4ccc(C)nc4)cc3c2n1-c1cc(C#N)ccc1C` [Compound 125, methyl (E)-(1-(5-cyano-2-methylphenyl)-3-methyl-8-(6-methylpyridin-3-yl)-1,3-dihydro-2H-imidazo[4,5-c]quinolin-2-ylidene)carbamate] registered an apparent permeability coefficient (Papp) of 243 ×10⁻⁶ cm/s. Also, the solubility in the data set “Solubility pH 7.4” (Table 1) was found to be 12.5 µg/mL (≈ 27 µM). In addition, the pEC50 in data set [1] (Table 1) is 8.92. Also, the half-life in data set [2] (setting [3]) was above 30 min.
Taken in the same sequence, the figures for `CCC(=O)/N=c1\n(C)c2cnc3ccc(-c4ccc(Cl)cc4)cc3c2n1-c1cc(C#N)ccc1C` [Compound 9, (E)-N-(8-(4-chlorophenyl)-1-(5-cyano-2-methylphenyl)-3-methyl-1,3-dihydro-2H-imidazo[4,5-c]quinolin-2-ylidene)propionamide] were 526 ×10⁻⁶ cm/s, below 1 µg/mL, 7.41 and above 30 min.
For `Cc1ccc(C#N)cc1-n1/c(=N/C(N)=O)n(C)c2cnc3ccc(-c4ccc(F)cc4)cc3c21` [Compound 55, (E)-1-(1-(5-cyano-2-methylphenyl)-8-(4-fluorophenyl)-3-methyl-1,3-dihydro-2H-imidazo[4,5-c]quinolin-2-ylidene)urea] the same measures were 466 ×10⁻⁶ cm/s, 1.3 µg/mL (≈ 2.89 µM), 7.02 and above 30 min.
In turn, `Cc1ncncc1-n1c(=N)n(C)c2cnc3ccc(-c4ccc(F)cc4)cc3c21` yielded a Papp in the data set “PAMPA permeability” (Table 3) of 1180 ×10⁻⁶ cm/s. The compound further gave a solubility in “Solubility pH 7.4” (Table 3) of 6.2 µg/mL (≈ 16.1 µM). The negative-log EC50 (pEC50) in data set [1] (Table 3) was 6.27. Besides, in data set [2] (setting [4]), the half-life is above 30 min.
`COc1cccc(-c2ccc3ncc4c(c3c2)n(-c2cc(C#N)ccc2C)c(=N)n4C)c1` [Compound 32, 3-(2-imino-8-(3-methoxyphenyl)-3-methyl-2,3-dihydro-H-imidazo[4,5-c]quinolin-1-yl)-4-methylbenzonitrile] yielded an apparent permeability (Papp) in “PAMPA permeability” (Table 1) of 678 ×10⁻⁶ cm/s. The compound also gave a solubility in the data set “Solubility pH 7.4” (Table 1) above 42 µg/mL. Further, the negative logarithm of the EC50 (pEC50) in data set [1] (Table 1) is 6.38. Besides, the half-life in data set [2] (setting [3]) was above 30 min.
`Cn1c(=N)n(-c2cnc(N3CCNCC3)c(C#N)c2)c2c3cc(-c4ccc(Cl)cc4)ccc3ncc21` [Compound 48, 5-(8-(4-chlorophenyl)-2-imino-3-methyl-2,3-dihydro-1H-imidazo[4,5-c]quinolin-1-yl)-2-(piperazin-1-yl)nicotinonitrile] displayed an apparent permeability (Papp) in the data set “PAMPA permeability” (Table 1) of 30.5 ×10⁻⁶ cm/s. In “Solubility pH 7.4” (Table 1), this compound displayed a solubility below 1 µg/mL. The negative logarithm of the EC50 (pEC50) in data set [1] (Table 1) was 6.90. Besides, in data set [2] (setting [3]), the half-life is above 30 min.
`Cn1c(=N)n(-c2cncnc2)c2c3cc(-c4ccc(F)cc4)ccc3ncc21` displayed a Papp in “PAMPA permeability” (Table 3) of 26.2 ×10⁻⁶ cm/s. This compound also showed a solubility in “Solubility pH 7.4” (Table 3) of 2 µg/mL (≈ 5.4 µM). In addition, the negative logarithm of the EC50 (pEC50) in data set [1] (Table 3) was 6.71. Further, in data set [2] (setting [4]), the half-life is above 30 min.
In “PAMPA permeability” (Table 2), `CN(C)CCN1CCN(C(=O)c2ccc(-n3/c(=N\C#N)ccc4cnc5ccc(-c6ccc(Cl)cc6)cc5c43)cc2)CC1` returned an apparent permeability coefficient (Papp) of 8.8 ×10⁻⁶ cm/s. For the same compound, the solubility in the data set “Solubility pH 7.4” (Table 2) was 3.2 µg/mL (≈ 5.42 µM). For the same compound, the negative-log EC50 (pEC50) in data set [1] (Table 2) is 7.34. Further, in data set [2] (Table 2, read-out: Microsomal Stability (rat) T1/2), the half-life was above 30 min.
For the compound `CC(=O)N1CCN([C@H]2C[C@H](n3c(=N)n(C)c4cnc5ccc(-c6ccc(Cl)cc6)cc5c43)C2)CC1` [Compound 129, 1-(4-((1r,3r)-3-(8-(4-chlorophenyl)-2-imino-3-methyl-2,3-dihydro-1H-imidazo[4,5-c]quinolin-1-yl)cyclobutyl)piperazin-1-yl)ethan-1-one], the apparent permeability (Papp) in “PAMPA permeability” (Table 1) was 4.6 ×10⁻⁶ cm/s. Also, in “Solubility pH 7.4” (Table 1), the solubility was above 48 µg/mL. Moreover, in data set [1] (Table 1), the pEC50 is 4.90. For the same compound, in data set [2] (setting [3]), the half-life is above 30 min.
For `Cc1ccc(C#N)cc1-n1c(=N)n(C)c2cnc3ccc(C#Cc4ccc(Cl)cc4)cc3c21` [Compound 155, 3-(8-((4-chlorophenyl)ethynyl)-2-imino-3-methyl-2,3-dihydro-1H-imidazo[4,5-c]quinolin-1-yl)-4-methylbenzonitrile] the same measures were 916 ×10⁻⁶ cm/s, below 1 µg/mL, 5.05 and above 30 min.
For `Cc1ccc(C#N)cc1-n1c(=N)n(C)c2cnc3ccc(-c4cccc(F)c4)cc3c21` [Compound 34, 3-(8-(3-fluorophenyl)-2-imino-3-methyl-2,3-dihydro-1H-imidazo[4,5-c]quinolin-1-yl)-4-methylbenzonitrile] the same measures were 852 ×10⁻⁶ cm/s, above 40 µg/mL, 7.33 and above 30 min.
Turning to `Cc1ccc(C#N)cc1-n1c(=N)n(C)c2cnc3ccc(-c4ccccc4O)cc3c21` [Compound 86, 3-(8-(2-hydroxyphenyl)-2-imino-3-methyl-2,3-dihydro-1H-imidazo[4,5-c]quinolin-1-yl)-4-methylbenzonitrile], in “PAMPA permeability” (Table 1), the apparent permeability coefficient (Papp) came out at 7.9 ×10⁻⁶ cm/s. The compound also gave a solubility in “Solubility pH 7.4” (Table 1) above 40 µg/mL. The negative logarithm of the EC50 (pEC50) in data set [1] (Table 1) was 6.16. Also, the half-life in data set [2] (setting [3]) is above 30 min.
Taken in the same sequence, the figures for `Cc1ccc(C#N)cc1-n1c(=N)n(C)c2cnc3ccc(-c4ccc(Cl)cn4)cc3c21` [Compound 44, 3-(8-(5-chloropyridin-2-yl)-2-imino-3-methyl-2,3-dihydro-1H-imidazo[4,5-c]quinolin-1-yl)-4-methylbenzonitrile] were 1560 ×10⁻⁶ cm/s, above 42 µg/mL, 6.92 and above 30 min.

By Papp is commonly meant a coefficient for how fast a substance crosses the barrier. The low end stands for slow passage, the high end for fast passage. A word on the solubility: it is how much of the substance goes into solution per volume. A high value points to a readily soluble substance. In general, pEC50 refers to the EC50 on a negative log10 scale, so that one unit is a factor of ten.
